Results from patent publication US20150152395A1, “CHIMERIC LUCIFERASES” (Connecticut College, priority 2012, published 2015).

How the values were obtained:
Experiment in all cases: Steady-state kinetic constants, bioluminescence activity
[1] = target: LitWT, recombinant Luciola italica luciferase containing Lys547Gly/Met548Gly, SEQ ID NO: 6, with N-terminal peptide GPLGS (Luciola italica, UniProt Q1AG35, K547G/M548G); conditions: kcat divided by Mg-ATP Km
[2] = target: T1, Photinus pyralis luciferase PpyWT variant Ppy14, Ala450Pro/Ile457Val/Leu472Val/Asp475Ser/Asp476Glu/Ala482Gly/Leu487Met/His489Lys/Ala503Asn/Thr507Val/Thr508Asn/A (Photinus pyralis, UniProt P08659, A450P/A482G/A503N/A509H/D475S/D476E/H489K/I457V/K511R/L472V/L487M/T507V/T508N/V517R); type: biochemical
T1 construct: N-terminal GPLGS; pGEX-6P-2 GST fusion (tag cleaved), E. coli BL21
T1 sequence (P08659 whole entry A450P/I457V/L472V/D475S/D476E/A482G/L487M/H489K/A503N/T507V/T508N/A509H/K511R/V517R, the tested form may be a part): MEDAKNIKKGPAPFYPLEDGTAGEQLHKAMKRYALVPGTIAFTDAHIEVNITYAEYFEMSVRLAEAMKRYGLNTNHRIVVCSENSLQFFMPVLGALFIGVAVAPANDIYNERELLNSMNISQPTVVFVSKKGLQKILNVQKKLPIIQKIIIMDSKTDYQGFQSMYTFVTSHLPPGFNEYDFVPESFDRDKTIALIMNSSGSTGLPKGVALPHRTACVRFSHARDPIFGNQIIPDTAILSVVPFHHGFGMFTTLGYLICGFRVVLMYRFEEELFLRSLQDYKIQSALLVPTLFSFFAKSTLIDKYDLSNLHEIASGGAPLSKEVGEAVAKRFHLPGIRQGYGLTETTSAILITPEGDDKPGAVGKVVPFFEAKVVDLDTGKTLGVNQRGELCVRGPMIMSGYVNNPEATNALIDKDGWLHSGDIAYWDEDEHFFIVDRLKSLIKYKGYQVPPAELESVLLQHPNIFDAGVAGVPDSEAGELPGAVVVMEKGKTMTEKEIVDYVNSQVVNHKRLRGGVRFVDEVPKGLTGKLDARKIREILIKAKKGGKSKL

[3] = target: T2, Photinus pyralis luciferase variant Ppy RE13, Ppy RE9 (SEQ ID NO: 20) with Ile457Val/Arg465Phe/Ala482Gly/His489Lys/Ala503Asn/Lys543Gln, SEQ ID NO: 16 (Photinus pyralis, UniProt P08659, A215L/A482G/A503N/E354I/F295L/H489K/I232A/I351V/I457V/K543Q/R330G/S284T/T214A); type: biochemical
T2 construct: N-terminal GPLGS; pGEX-6P-2 GST fusion (tag cleaved), E. coli BL21
T2 sequence (P08659 whole entry T214A/A215L/I232A/S284T/F295L/R330G/I351V/E354I/I457V/A482G/H489K/A503N/K543Q, the tested form may be a part): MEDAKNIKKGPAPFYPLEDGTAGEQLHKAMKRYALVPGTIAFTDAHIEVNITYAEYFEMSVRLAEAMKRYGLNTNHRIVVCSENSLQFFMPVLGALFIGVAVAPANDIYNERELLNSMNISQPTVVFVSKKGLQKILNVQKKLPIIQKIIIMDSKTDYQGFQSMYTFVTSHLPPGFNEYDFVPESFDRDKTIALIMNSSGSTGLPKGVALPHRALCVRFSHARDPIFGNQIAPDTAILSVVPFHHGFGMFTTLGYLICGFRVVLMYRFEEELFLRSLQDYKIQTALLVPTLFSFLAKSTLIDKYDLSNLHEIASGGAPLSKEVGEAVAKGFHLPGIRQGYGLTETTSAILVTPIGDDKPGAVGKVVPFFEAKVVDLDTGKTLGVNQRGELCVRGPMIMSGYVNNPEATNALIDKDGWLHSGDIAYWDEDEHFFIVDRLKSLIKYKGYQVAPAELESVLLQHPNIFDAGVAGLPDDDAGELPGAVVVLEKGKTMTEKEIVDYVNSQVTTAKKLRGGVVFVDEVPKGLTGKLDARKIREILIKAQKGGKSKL

[4] = target: Photinus pyralis luciferase, recombinant wild type (PpyWT), SEQ ID NO: 4, with N-terminal peptide GPLGS (Photinus pyralis, UniProt P08659); type: biochemical
Sequence of Photinus pyralis luciferase, recombinant wild type (PpyWT), SEQ ID NO: 4, with N-terminal peptide GPLGS (P08659 whole entry, the tested form may be a part): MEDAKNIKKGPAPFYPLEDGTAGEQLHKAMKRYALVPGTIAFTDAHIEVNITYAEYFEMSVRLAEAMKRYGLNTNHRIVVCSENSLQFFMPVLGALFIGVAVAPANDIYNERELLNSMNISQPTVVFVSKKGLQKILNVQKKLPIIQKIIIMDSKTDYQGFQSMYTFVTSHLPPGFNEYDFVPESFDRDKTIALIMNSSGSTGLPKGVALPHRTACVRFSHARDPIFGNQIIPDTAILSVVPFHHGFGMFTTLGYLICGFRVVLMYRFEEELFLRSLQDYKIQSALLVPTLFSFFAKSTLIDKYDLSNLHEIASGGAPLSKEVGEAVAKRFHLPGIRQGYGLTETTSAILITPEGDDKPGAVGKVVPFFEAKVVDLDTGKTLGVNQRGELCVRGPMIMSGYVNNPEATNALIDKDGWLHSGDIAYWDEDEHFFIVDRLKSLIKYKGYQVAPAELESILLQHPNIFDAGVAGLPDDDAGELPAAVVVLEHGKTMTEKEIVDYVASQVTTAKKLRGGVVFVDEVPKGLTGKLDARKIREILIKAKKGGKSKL

[5] = system: LitPpy, chimeric luciferase of LitWT residues 1-439 and PpyWT residues 440-550; type: biochemical, Luciola italica / Photinus pyralis
Method: (§1) Reactions were initiated by injection of solutions of the substrate being maintained at saturating concentration. Kinetic constants were determined using a nonlinear least squares method of the Enzyme Kinetics Pro software (SynTex), which fits data from the Michalis-Menten equation to a rectangular hyperbola. The corresponding kcat values were obtained by dividing the Vmax values by the amount (μmol) of each luciferase in the assay mixtures.

[6] = system: PpyLit (chimeric luciferase, SEQ ID NO: 8) variant I351V/E354K/F465R; type: biochemical, Photinus pyralis / Luciola italica
Method: as §1

[7] = system: PpyLit (chimeric luciferase, SEQ ID NO: 8) variant S284T; type: biochemical, Photinus pyralis / Luciola italica
Method: as §1

[8] = system: PpyLit (chimeric luciferase, SEQ ID NO: 8) variant I351V/E354K; type: biochemical, Photinus pyralis / Luciola italica
Method: as §1

[9] = system: Ppy GR-TSLit, chimeric luciferase of Ppy GR-TS N-domain and LitWT C-domain; type: biochemical, Photinus pyralis / Luciola italica
Method: as §1

[10] = system: Ppy RE-TSLit, chimeric luciferase of Ppy RE-TS N-domain and LitWT C-domain; type: biochemical, Photinus pyralis / Luciola italica
Method: as §1

[11] = system: PpyLit (chimeric luciferase, SEQ ID NO: 8) variant I232A/E354K; type: biochemical, Photinus pyralis / Luciola italica
Method: as §1

[12] = system: PpyLit (chimeric luciferase, SEQ ID NO: 8) variant S284T/I351V/E354K; type: biochemical, Photinus pyralis / Luciola italica
Method: as §1

[13] = system: PpyLit (chimeric luciferase, SEQ ID NO: 8) variant F465R; type: biochemical, Photinus pyralis / Luciola italica
Method: as §1

[14] = system: PpyLit (chimeric luciferase, SEQ ID NO: 8) variant S284T/F465R; type: biochemical, Photinus pyralis / Luciola italica
Method: as §1

[15] = system: PpyLit, chimeric luciferase of PpyWT residues 1-439 and LitWT residues 440-550, SEQ ID NO: 8; type: biochemical, Photinus pyralis / Luciola italica
Method: as §1

[16] = system: PpyLit (chimeric luciferase, SEQ ID NO: 8) variant I232A/I351V/E354K; type: biochemical, Photinus pyralis / Luciola italica
Method: as §1

[17] = target: T3, Native Ppy, native firefly luciferase from Photinus pyralis (Photinus pyralis, UniProt P08659); type: biochemical
T3 construct: wild type, no tag
T3 sequence (P08659 whole entry): as the sequence (P08659 whole entry, the tested form may be a part) above

[18] = target: T4, 6×His-PpyWT, Photinus pyralis luciferase PpyWT with N-terminal peptide MRGSHHHHHHGS (SEQ ID NO: 27) in place of GPLGS (Photinus pyralis, UniProt P08659); type: biochemical
T4 construct: pQE-30, E. coli; Ni-NTA purified
T4 sequence (P08659 whole entry): as the sequence (P08659 whole entry, the tested form may be a part) above

[19] = target: T5, Photinus pyralis luciferase variant Ppy RE-TS, SEQ ID NO: 24 (Photinus pyralis, UniProt P08659, A215L/E354K/F295L/I232A/S284T/T214A); type: biochemical
T5 construct: N-terminal GPLGS; pGEX-6P-2 GST fusion (tag cleaved), E. coli BL21
T5 sequence (P08659 whole entry T214A/A215L/I232A/S284T/F295L/E354K, the tested form may be a part): as the sequence (P08659 whole entry, the tested form may be a part) above, with T214A, A215L, I232A, S284T, F295L, E354K counted along it

[20] = target: T6, Photinus pyralis luciferase PpyWT variant Ppy S284T (Ser284Thr) (Photinus pyralis, UniProt P08659, S284T); type: biochemical
T6 construct: pGEX-6P-2 GST fusion (tag cleaved), E. coli BL21
T6 sequence (P08659 whole entry S284T, the tested form may be a part): as the sequence (P08659 whole entry, the tested form may be a part) above, with S284T counted along it

[21] = read-out: Km Mg-ATP, pH 7.8, LH2 saturating
[22] = pH 7.8, LH2 saturating, read-out: Km Mg-ATP

Sequence of LitWT, recombinant Luciola italica luciferase containing Lys547Gly/Met548Gly, SEQ ID NO: 6, with N-terminal peptide GPLGS (Q1AG35 1-548 K547G/M548G): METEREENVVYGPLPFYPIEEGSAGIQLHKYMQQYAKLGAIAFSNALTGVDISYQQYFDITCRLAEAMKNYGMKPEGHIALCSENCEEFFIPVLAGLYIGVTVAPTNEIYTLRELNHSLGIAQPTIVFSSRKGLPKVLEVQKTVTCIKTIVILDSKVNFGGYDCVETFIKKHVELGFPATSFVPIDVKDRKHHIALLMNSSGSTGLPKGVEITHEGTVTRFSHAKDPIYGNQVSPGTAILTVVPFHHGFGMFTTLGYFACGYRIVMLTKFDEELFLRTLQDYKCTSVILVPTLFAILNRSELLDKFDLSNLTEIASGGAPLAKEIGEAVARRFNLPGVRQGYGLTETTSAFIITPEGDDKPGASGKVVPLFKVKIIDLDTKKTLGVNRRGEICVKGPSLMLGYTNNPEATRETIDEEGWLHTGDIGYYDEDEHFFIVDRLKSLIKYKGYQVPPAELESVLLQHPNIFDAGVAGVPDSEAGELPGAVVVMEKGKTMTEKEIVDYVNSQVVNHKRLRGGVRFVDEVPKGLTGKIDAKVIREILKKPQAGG

Nc1ncnc2c1ncn2[C@@H]1O[C@H](COP(=O)(O)OP(=O)(O)OP(=O)(O)O)[C@@H](O)[C@H]1O [Mg-ATP]
kcat/Km [1]: 780 ± 110 M⁻¹ s⁻¹
kcat/Km ([2]; kcat divided by Mg-ATP Km): 6340 ± 110 M⁻¹ s⁻¹
Km [2, 21]: 41 ± 3 µM
kcat/Km ([3]; kcat divided by Mg-ATP Km): 380 ± 100 M⁻¹ s⁻¹
Km [3, 21]: 289 ± 20 µM
kcat/Km ([4]; kcat divided by Mg-ATP Km): 2090 ± 100 M⁻¹ s⁻¹
Km [4, 22]: 86 ± 7 µM
kcat/Km ([5]; kcat divided by Mg-ATP Km): 1180 ± 60 M⁻¹ s⁻¹
Km [5, 22]: 188 ± 10 µM
kcat/Km ([6]; kcat divided by Mg-ATP Km): 3090 ± 90 M⁻¹ s⁻¹
Km [6, 22]: 94 ± 8 µM
kcat/Km ([7]; kcat divided by Mg-ATP Km): 1120 ± 150 M⁻¹ s⁻¹
Km [7, 22]: 89 ± 10 µM
kcat/Km ([8]; kcat divided by Mg-ATP Km): 3750 ± 150 M⁻¹ s⁻¹
Km [8, 22]: 80 ± 10 µM
kcat/Km ([9]; kcat divided by Mg-ATP Km): 170 ± 70 M⁻¹ s⁻¹
Km [9, 22]: 466 ± 36 µM
kcat/Km ([10]; kcat divided by Mg-ATP Km): 1130 ± 120 M⁻¹ s⁻¹
Km [10, 22]: 79 ± 9 µM
kcat/Km ([11]; kcat divided by Mg-ATP Km): 3290 ± 100 M⁻¹ s⁻¹
Km [11, 22]: 76 ± 4 µM
kcat/Km ([12]; kcat divided by Mg-ATP Km): 1360 ± 140 M⁻¹ s⁻¹
Km [12, 22]: 95 ± 9 µM
kcat/Km ([13]; kcat divided by Mg-ATP Km): 3430 ± 100 M⁻¹ s⁻¹
Km [13, 22]: 99 ± 6 µM
kcat/Km ([14]; kcat divided by Mg-ATP Km): 1670 ± 140 M⁻¹ s⁻¹
Km [14, 22]: 60 ± 6 µM
enhanced catalytic efficiency (kcat/Km ATP) ([15]; compared to PpyWT): 2.9 fold
kcat/Km ([15]; kcat divided by Mg-ATP Km): 6040 ± 120 M⁻¹ s⁻¹
Km [15, 22]: 53 ± 5 µM
kcat/Km ([16]; kcat divided by Mg-ATP Km): 1860 ± 120 M⁻¹ s⁻¹
Km [16, 22]: 129 ± 14 µM
kcat/Km ([17]; kcat divided by Mg-ATP Km): 1890 ± 130 M⁻¹ s⁻¹
Km [17, 22]: 90 ± 10 µM
kcat/Km ([18]; kcat divided by Mg-ATP Km): 1930 ± 110 M⁻¹ s⁻¹
Km [18, 22]: 93 ± 9 µM
kcat/Km ([19]; kcat divided by Mg-ATP Km): 820 ± 90 M⁻¹ s⁻¹
Km [19, 21]: 68 ± 5 µM
kcat/Km ([20]; kcat divided by Mg-ATP Km): 630 ± 140 M⁻¹ s⁻¹
Km [20, 21]: 79 ± 9 µM
